This experiment has as its target JAK2 (JH1 domain-catalytic, Y1007F, Y1008F) kinase (Homo sapiens (Human), UniProt O60674, Y1007F/Y1008F). In words: JAK2 JH1 Domain Binding Assay. As to conditions: qPCR readout. An outline of the steps: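 JH1 catalytic domain (Y1007F/Y1008F) expressed as NFkB DNA-binding-domain fusion in HEK293 cells, DNA-tagged. Competition with immobilized biotinylated ligand on streptavidin beads, 1 h at RT in PBS/Tween/BSA/DTT; bound kinase eluted with free ligand and quantified by qPCR.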
For orientation: Quantitative PCR measures a nucleic acid by following its amplification.

Chain of JAK2 (JH1 domain-catalytic, Y1007F, Y1008F) kinase (O60674 849-1124 Y1007F/Y1008F): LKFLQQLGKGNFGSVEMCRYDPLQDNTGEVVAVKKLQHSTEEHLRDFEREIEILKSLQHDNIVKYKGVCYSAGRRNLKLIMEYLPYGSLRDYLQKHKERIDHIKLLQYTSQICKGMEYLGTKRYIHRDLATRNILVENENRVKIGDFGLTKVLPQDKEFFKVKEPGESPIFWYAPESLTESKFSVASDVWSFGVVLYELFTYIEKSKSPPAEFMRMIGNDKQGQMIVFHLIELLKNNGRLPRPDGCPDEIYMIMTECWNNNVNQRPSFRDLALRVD

Consider `COc1n[nH]c2ncc(N3CC[C@H](N(C)C(=O)Nc4cc(C(F)(F)F)cn(C)c4=O)[C@H](F)C3)cc12` [Example I-87-b, 1-((3R,4S)-3-fluoro-1-(3-methoxy-1H-pyrazolo[3,4-b]pyridin-5-yl)piperidin-4-yl)-1-methyl-3-(1-methyl-2-oxo-5-(trifluoromethyl)-1,2-dihydropyridin-3-yl)urea], for which the Kd was below 10 nM.

`COCc1cc2nc(N3CC[C@@H](N(C)C(=O)Nc4cc(C(F)(F)F)cn(C)c4=O)C(F)(F)C3)cnc2[nH]1` [Example I-110-a, (R)-1-(3,3-difluoro-1-(6-(methoxymethyl)-5H-pyrrolo[2,3-b]pyrazin-2-yl)piperidin-4-yl)-1-methyl-3-(1-methyl-2-oxo-5-(trifluoromethyl)-1,2-dihydropyridin-3-yl)urea] displayed a Kd below 10 nM.

Molecule `Cn1cc(C(F)(F)F)cc(NC(=O)N2CCO[C@H]3CN(c4cnc5[nH]ccc5n4)CC[C@@H]32)c1=O` [Example I-128-a, (4aS,8aS)-N-(1-methyl-2-oxo-5-(trifluoromethyl)-1,2-dihydropyridin-3-yl)-6-(5H-pyrrolo[2,3-b]pyrazin-2-yl)octahydro-1H-pyrido[3,4-b][1,4]oxazine-1-carboxamide] yielded a Kd of 10 to 50 nM.

The molecule `C[C@@H]1CN(c2cnc3[nH]ncc3c2)CC[C@H]1N(C)C(=O)Nc1cc(C(F)(F)F)cn(C)c1=O` [Example I-74-b, 1-methyl-1-((3R,4R)-3-methyl-1-(1H-pyrazolo[3,4-b]pyridin-5-yl)piperidin-4-yl)-3-(1-methyl-2-oxo-5-(trifluoromethyl)-1,2-dihydropyridin-3-yl)urea] showed a Kd of 50 to 1000 nM.

Molecule `CN(C(=O)Nc1cc(C(F)(F)F)n([C@@H]2CCOC2)n1)C1CCN(c2cnc3[nH]ncc3c2)CC1` [Example I-180, (R)-1-(1-(1H-pyrazolo[3,4-b]pyridin-5-yl)piperidin-4-yl)-1-methyl-3-(1-(tetrahydrofuran-3-yl)-5-(trifluoromethyl)-1H-pyrazol-3-yl)urea] gave a dissociation constant (Kd) below 10 nM.

Molecule “(S)-1-methyl-3-(1-methyl-2-oxo-5-(trifluoromethyl)-1,2-dihydropyridin-3-yl)-1-(3-(3-((tetrahydrofuran-3-yl)oxy)-1H-pyrazolo[3,4-b]pyridin-5-yl)bicyclo[1.1.1]pentan-1-yl)urea and (R)-1-methyl-3-(1-methyl-2-oxo-5-(trifluoromethyl)-1,2-dihydropyridin-3-yl)-1-(3-(3-((tetrahydrofuran-3-yl)oxy)-1H-pyrazolo[3,4-b]pyridin-5-yl)bicyclo[1.1.1]pentan-1-yl)urea [Example I-166-a]” displayed a Kd of 50 to 1000 nM.

For `CN(C(=O)Nc1cc(N2CCC(O)CC2)cc(C(F)(F)F)c1)C1CCN(c2cnccn2)CC1` [Example I-9, 3-(3-(4-hydroxypiperidin-1-yl)-5-(trifluoromethyl)phenyl)-1-methyl-1-(1-(pyrazin-2-yl)piperidin-4-yl)urea], the Kd was in the range of 1000 to 5000 nM.

Molecule `COc1n[nH]c2ncc(N3CCC(N(C)C(=O)Nc4cncc(C(F)(F)F)c4)CC3)cc12` [Example I-139, 1-(1-(3-methoxy-1H-pyrazolo[3,4-b]pyridin-5-yl)piperidin-4-yl)-1-methyl-3-(5-(trifluoromethyl)pyridin-3-yl)urea] came in with a Kd below 10 nM.

For the molecule `CO[C@@H]1CN(c2cnc3[nH]ncc3c2)CC[C@H]1N(C)C(=O)Nc1cc(C(F)(F)F)cn(C)c1=O` [Example I-109-a, 1-((3R,4R)-3-methoxy-1-(1H-pyrazolo[3,4-b]pyridin-5-yl)piperidin-4-yl)-1-methyl-3-(1-methyl-2-oxo-5-(trifluoromethyl)-1,2-dihydropyridin-3-yl)urea], the Kd lay within 10 to 50 nM.

`Cc1c[nH]c2ncc(N3CCC(N(C)C(=O)Nc4cc(C(F)(F)F)cn(C)c4=O)C(F)(F)C3)nc12` (single isomer, unassigned) [Example I-33-a, (R)- or (S)-1-(3,3-difluoro-1-(7-methyl-5H-pyrrolo[2,3-b]pyrazin-2-yl)piperidin-4-yl)-1-methyl-3-(1-methyl-2-oxo-5-(trifluoromethyl)-1,2-dihydropyridin-3-yl)urea]: the Kd was below 10 nM.

Molecule `CN(C(=O)Nc1cc(C(F)(F)F)ccn1)[C@@H]1CCN(c2cnc3[nH]ncc3c2)CC1(F)F` (mixture of isomers) [Example I-146-a, (R)-1-(3,3-difluoro-1-(1H-pyrazolo[3,4-b]pyridin-5-yl)piperidin-4-yl)-1-methyl-3-(4-(trifluoromethyl)pyridin-2-yl)urea and (S)-1-(3,3-difluoro-1-(1H-pyrazolo[3,4-b]pyridin-5-yl)piperidin-4-yl)-1-methyl-3-(4-(trifluoromethyl)pyridin-2-yl)urea] gave a Kd below 10 nM.

Take `CN(C(=O)Nc1cc(C(F)(F)F)cn(C)c1=O)[C@H]1CCN(c2cnc3[nH]c(=O)[nH]c3c2)C[C@H]1F` [Example I-100-a, 1-((3R,4S)-3-fluoro-1-(2-oxo-2,3-dihydro-1H-imidazo[4,5-b]pyridin-6-yl)piperidin-4-yl)-1-methyl-3-(1-methyl-2-oxo-5-(trifluoromethyl)-1,2-dihydropyridin-3-yl)urea]: the Kd is below 10 nM.

Molecule `CC(=O)Nc1c[nH]c2ncc(N3CC[C@H](N(C)C(=O)Nc4cc(C(F)(F)F)cn(C)c4=O)C(F)(F)C3)cc12` (mixture of isomers) [Example I-172-b, (R)—N-(5-(3,3-difluoro-4-(1-methyl-3-(1-methyl-2-oxo-5-(trifluoromethyl)-1,2-dihydropyridin-3-yl)ureido)piperidin-1-yl)-1H-pyrrolo[2,3-b]pyridin-3-yl)acetamide and (S)—N-(5-(3,3-difluoro-4-(1-methyl-3-(1-methyl-2-oxo-5-(trifluoromethyl)-1,2-dihydropyridin-3-yl)ureido)piperidin-1-yl)-1H-pyrrolo[2,3-b]pyridin-3-yl)acetamide] yielded a Kd below 10 nM.

Molecule `Cn1cc(C(F)(F)F)cc(NC(=O)N2CCCC23CCN(c2cnc4[nH]ncc4c2)CC3)c1=O` [Example I-50, N-(1-methyl-2-oxo-5-(trifluoromethyl)-1,2-dihydropyridin-3-yl)-8-(1H-pyrazolo[3,4-b]pyridin-5-yl)-1,8-diazaspiro[4.5]decane-1-carboxamide] yielded a Kd of 10 to 50 nM.

Take `CN(C(=O)Nc1cc(C(F)(F)F)cn(C)c1=O)[C@@H]1CCN(c2cnc3[nH]n(C)c(=O)c3c2)C[C@H]1F` [Example I-90-b, 1-((3R,4R)-3-fluoro-1-(2-methyl-3-oxo-2,3-dihydro-1H-pyrazolo[3,4-b]pyridin-5-yl)piperidin-4-yl)-1-methyl-3-(1-methyl-2-oxo-5-(trifluoromethyl)-1,2-dihydropyridin-3-yl)urea]: the Kd fell in the range of 10 to 50 nM.

Molecule `Cn1cc(C(F)(F)F)cc(NC(=O)N(C)[C@H]2CC[C@@H](c3cnc4[nH]ccc4n3)CC2)c1=O` [Example I-120-b, cis-1-(4-(5H-pyrrolo[2,3-b]pyrazin-2-yl)cyclohexyl)-1-methyl-3-(1-methyl-2-oxo-5-(trifluoromethyl)-1,2-dihydropyridin-3-yl)urea] returned a Kd below 10 nM.

For the molecule `Cn1cc(C(F)(F)F)cc(NC(=O)OC2(C)CCN(c3cnc4[nH]ccc4n3)CC2)c1=O` [Example I-71, 4-methyl-1-(5H-pyrrolo[2,3-b]pyrazin-2-yl)piperidin-4-yl (1-methyl-2-oxo-5-(trifluoromethyl)-1,2-dihydropyridin-3-yl)carbamate], the Kd is 50 to 1000 nM.

With `COCCOc1n[nH]c2ncc(N3CC[C@H]4[C@H](C3)OCCN4C(=O)Nc3cc(C(F)(F)F)cn(C)c3=O)cc12` [Example I-162-a, (4aS,8aS)-6-(3-(2-methoxyethoxy)-1H-pyrazolo[3,4-b]pyridin-5-yl)-N-(1-methyl-2-oxo-5-(trifluoromethyl)-1,2-dihydropyridin-3-yl)octahydro-1H-pyrido[3,4-b][1,4]oxazine-1-carboxamide], the Kd is below 10 nM.

Turning to `COc1n[nH]c2ncc(N3CC[C@H]4[C@H](C3)OCCN4C(=O)Nc3cc(C(F)(F)F)cn(C)c3=O)cc12` (single isomer, unassigned) [Example I-169-a], the Kd fell in the range of 10 to 50 nM.

On to `Cn1cc(C(F)(F)F)cc(NC(=O)N2CC=CC23CCN(c2cnc4[nH]cc(F)c4n2)CC3)c1=O` [Example I-93, 8-(7-fluoro-5H-pyrrolo[2,3-b]pyrazin-2-yl)-N-(1-methyl-2-oxo-5-(trifluoromethyl)-1,2-dihydropyridin-3-yl)-1,8-diazaspiro[4.5]dec-3-ene-1-carboxamide], for which the Kd lay in the range of 10 to 50 nM.

`CN(C(=O)Nc1cc(C(F)(F)F)cn(C)c1=O)[C@@H]1CCN(c2cnc(NC(=O)C3CC3)cn2)CC1(F)F` (single isomer, unassigned) [Example I-34-a]: the Kd is below 10 nM.

Molecule `Cc1c[nH]c2ncc(N3CCC(N(C)C(=O)Nc4cc(C(F)(F)F)cn(C)c4=O)CC3)nc12` [Example I-30, 1-methyl-3-(1-methyl-2-oxo-5-(trifluoromethyl)-1,2-dihydropyridin-3-yl)-1-(1-(7-methyl-5H-pyrrolo[2,3-b]pyrazin-2-yl)piperidin-4-yl)urea] came in with an equilibrium dissociation constant (Kd) below 10 nM.

As for `CN(C(=O)Nc1cc(C(F)(F)F)cn(C)c1=O)C1CC2(C1)CN(c1cnc3[nH]cc(C#N)c3n1)C2` [Example I-75, 1-(2-(7-cyano-5H-pyrrolo[2,3-b]pyrazin-2-yl)-2-azaspiro[3.3]heptan-6-yl)-1-methyl-3-(1-methyl-2-oxo-5-(trifluoromethyl)-1,2-dihydropyridin-3-yl)urea], the Kd is at least 5000 nM.

For the molecule `CN(C(=O)Nc1cc(C(F)(F)F)cn(C)c1=O)C1CCN(c2cnc3[nH]ccc3n2)CC1(C)C` (single isomer, unassigned) [Example I-49-b, (S)- or (R)-1-(3,3-dimethyl-1-(5H-pyrrolo[2,3-b]pyrazin-2-yl)piperidin-4-yl)-1-methyl-3-(1-methyl-2-oxo-5-(trifluoromethyl)-1,2-dihydropyridin-3-yl)urea], the Kd was below 10 nM.

What is called Kd is a measure of binding affinity in units of concentration.

Values taken from patent publication US20240116892A1, “HETEROCYCLIC AMIDE AND UREA COMPOUNDS AS JAK2 INHIBITORS” (Ajax Therapeutics, Inc., priority 2022, published 2024).
